We go through 20 molecules from ChEMBL document CHEMBL4431368, “Development of single and mixed isoform selectivity PI3Kδ inhibitors by targeting Asn836 of PI3Kδ” (Bioorg Med Chem Lett, 2016).

Assay [1] concerns the target T1, Phosphatidylinositol 4,5-bisphosphate 3-kinase catalytic subunit delta isoform (Homo sapiens) (UniProt O00329).
T1 sequence (whole entry): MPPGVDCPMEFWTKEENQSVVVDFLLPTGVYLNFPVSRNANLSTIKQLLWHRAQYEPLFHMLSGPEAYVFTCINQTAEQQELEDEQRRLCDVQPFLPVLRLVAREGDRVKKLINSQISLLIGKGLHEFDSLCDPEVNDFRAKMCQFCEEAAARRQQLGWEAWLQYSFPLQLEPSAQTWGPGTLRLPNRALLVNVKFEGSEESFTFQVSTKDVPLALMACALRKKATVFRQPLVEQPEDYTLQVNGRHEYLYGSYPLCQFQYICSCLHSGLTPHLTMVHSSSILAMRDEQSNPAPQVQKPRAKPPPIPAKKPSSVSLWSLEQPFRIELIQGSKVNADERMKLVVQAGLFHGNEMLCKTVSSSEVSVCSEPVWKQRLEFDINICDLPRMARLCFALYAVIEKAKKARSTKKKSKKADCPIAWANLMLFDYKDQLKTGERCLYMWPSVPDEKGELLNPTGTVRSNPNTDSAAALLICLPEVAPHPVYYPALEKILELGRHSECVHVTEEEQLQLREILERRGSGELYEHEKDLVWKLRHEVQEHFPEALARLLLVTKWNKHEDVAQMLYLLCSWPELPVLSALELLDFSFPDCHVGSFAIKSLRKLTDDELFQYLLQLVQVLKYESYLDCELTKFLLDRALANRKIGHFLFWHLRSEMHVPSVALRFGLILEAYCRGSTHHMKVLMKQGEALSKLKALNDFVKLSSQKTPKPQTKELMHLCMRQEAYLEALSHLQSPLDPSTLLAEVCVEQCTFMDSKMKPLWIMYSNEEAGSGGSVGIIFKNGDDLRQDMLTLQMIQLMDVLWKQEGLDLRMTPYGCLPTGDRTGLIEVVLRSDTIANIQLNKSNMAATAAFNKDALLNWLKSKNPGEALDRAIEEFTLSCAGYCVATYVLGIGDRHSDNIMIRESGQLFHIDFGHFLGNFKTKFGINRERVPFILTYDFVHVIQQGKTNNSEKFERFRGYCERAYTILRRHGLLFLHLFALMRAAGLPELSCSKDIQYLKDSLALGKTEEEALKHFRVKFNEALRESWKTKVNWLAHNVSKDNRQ
Put plainly: Inhibition of PI3Kdelta in human NAMALWA cells assessed as suppression of Akt S473 phosphorylation levels at […] after 2 hrs by Western blot analysis. The assay is classed as cell-based. On the technique in general: A western blot detects proteins with antibodies after separation by electrophoresis.

Assay [2] is described as follows: Inhibition of PI3Kbeta D862 mutant (unknown origin) expressed in baculovirus expression system by kinase-glo luminescence assay. The arrangement: species or system Homo sapiens. Background: Kinase-Glo reads ATP consumption through a luciferase reaction.
Assay [3] deals with T2, Phosphatidylinositol 4,5-bisphosphate 3-kinase catalytic subunit delta isoform (Homo sapiens, UniProt O00329).
T2 sequence (O00329 whole entry): T1 sequence (whole entry)
The assay can be described thus: Inhibition of PI3Kdelta (unknown origin) expressed in baculovirus expression system by kinase-glo luminescence assay.

In assay [4] the target is Phosphatidylinositol 4,5-bisphosphate 3-kinase catalytic subunit gamma isoform (Homo sapiens, UniProt P48736). The assay can be described thus: Inhibition of PI3Kgamma (unknown origin) expressed in baculovirus expression system by kinase-glo luminescence assay.
Assay [5] addresses Phosphatidylinositol 4,5-bisphosphate 3-kinase catalytic subunit beta isoform (Homo sapiens, UniProt P42338). Put plainly: Inhibition of PI3Kbeta (unknown origin) expressed in baculovirus expression system by kinase-glo luminescence assay.
Assay [6] is filed under the species Homo sapiens. Put plainly: Selectivity ratio of IC50 for PI3Kdelta N836D mutant (unknown origin) expressed in Sf21 cells to IC50 for wild type PI3Kdelta (unknown origin) expressed in baculovirus expression system.
Assay [7] can be described thus: Inhibition of PI3Kalpha Q859D mutant (unknown origin) expressed in baculovirus expression system by kinase-glo luminescence assay. The arrangement: species or system Homo sapiens.
The species named for assay [8] is Homo sapiens. The assay can be described thus: Selectivity ratio of IC50 for wild type PI3Kbeta (unknown origin) expressed in baculovirus expression system to IC50 for PI3Kbeta D862 mutant (unknown origin) expressed in baculovirus expression system.
The target in assay [9] is Phosphatidylinositol 4,5-bisphosphate 3-kinase catalytic subunit alpha isoform (Homo sapiens, UniProt P42336). Put plainly: Inhibition of PI3Kalpha (unknown origin) expressed in baculovirus expression system by kinase-glo luminescence assay.
For assay [10], the target named is Phosphatidylinositol 4,5-bisphosphate 3-kinase catalytic subunit delta isoform (Homo sapiens, UniProt O00329, N836D). The assay can be described thus: Inhibition of PI3Kdelta N836D mutant (unknown origin) expressed in Sf21 cells co-expressing p85 by kinase-glo luminescence assay.

Activity calls are given as the source filed them. The rule behind the calls is not given here. A value given as a limit tells only on which side of the number the result lay.

As usually defined, the IC50 is the concentration that inhibits the measured activity by half. Read a high IC50 as weaker potency in that assay.

Sequence of Phosphatidylinositol 4,5-bisphosphate 3-kinase catalytic subunit beta isoform (P42338 whole entry, canonical isoform): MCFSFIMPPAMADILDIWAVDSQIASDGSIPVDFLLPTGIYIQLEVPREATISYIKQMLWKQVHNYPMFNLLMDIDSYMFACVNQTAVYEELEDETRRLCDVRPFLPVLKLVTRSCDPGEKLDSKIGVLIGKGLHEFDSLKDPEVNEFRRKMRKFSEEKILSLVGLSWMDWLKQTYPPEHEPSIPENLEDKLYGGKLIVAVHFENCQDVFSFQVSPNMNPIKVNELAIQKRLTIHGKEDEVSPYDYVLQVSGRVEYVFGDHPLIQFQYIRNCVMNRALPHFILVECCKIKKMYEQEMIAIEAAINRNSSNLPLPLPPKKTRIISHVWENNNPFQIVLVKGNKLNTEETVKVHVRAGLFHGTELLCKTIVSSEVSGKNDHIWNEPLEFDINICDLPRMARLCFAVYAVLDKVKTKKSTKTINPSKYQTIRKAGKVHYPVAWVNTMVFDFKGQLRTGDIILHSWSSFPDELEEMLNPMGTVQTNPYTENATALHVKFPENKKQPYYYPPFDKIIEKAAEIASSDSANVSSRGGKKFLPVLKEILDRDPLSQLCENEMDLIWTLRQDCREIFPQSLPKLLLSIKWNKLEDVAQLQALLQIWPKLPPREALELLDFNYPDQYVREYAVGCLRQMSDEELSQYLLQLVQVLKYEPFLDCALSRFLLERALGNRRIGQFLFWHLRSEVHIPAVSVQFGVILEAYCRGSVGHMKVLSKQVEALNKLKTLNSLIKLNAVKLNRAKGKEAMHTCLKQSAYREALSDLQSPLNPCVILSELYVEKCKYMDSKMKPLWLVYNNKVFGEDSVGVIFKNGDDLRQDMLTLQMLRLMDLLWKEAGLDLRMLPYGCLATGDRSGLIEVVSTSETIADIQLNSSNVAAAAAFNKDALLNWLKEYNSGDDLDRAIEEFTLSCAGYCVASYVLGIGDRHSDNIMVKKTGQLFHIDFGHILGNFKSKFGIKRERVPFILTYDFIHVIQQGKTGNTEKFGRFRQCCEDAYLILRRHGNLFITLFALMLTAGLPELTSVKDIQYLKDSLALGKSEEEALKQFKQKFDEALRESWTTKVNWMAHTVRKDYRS
Sequence of Phosphatidylinositol 4,5-bisphosphate 3-kinase catalytic subunit alpha isoform (P42336 whole entry, canonical isoform): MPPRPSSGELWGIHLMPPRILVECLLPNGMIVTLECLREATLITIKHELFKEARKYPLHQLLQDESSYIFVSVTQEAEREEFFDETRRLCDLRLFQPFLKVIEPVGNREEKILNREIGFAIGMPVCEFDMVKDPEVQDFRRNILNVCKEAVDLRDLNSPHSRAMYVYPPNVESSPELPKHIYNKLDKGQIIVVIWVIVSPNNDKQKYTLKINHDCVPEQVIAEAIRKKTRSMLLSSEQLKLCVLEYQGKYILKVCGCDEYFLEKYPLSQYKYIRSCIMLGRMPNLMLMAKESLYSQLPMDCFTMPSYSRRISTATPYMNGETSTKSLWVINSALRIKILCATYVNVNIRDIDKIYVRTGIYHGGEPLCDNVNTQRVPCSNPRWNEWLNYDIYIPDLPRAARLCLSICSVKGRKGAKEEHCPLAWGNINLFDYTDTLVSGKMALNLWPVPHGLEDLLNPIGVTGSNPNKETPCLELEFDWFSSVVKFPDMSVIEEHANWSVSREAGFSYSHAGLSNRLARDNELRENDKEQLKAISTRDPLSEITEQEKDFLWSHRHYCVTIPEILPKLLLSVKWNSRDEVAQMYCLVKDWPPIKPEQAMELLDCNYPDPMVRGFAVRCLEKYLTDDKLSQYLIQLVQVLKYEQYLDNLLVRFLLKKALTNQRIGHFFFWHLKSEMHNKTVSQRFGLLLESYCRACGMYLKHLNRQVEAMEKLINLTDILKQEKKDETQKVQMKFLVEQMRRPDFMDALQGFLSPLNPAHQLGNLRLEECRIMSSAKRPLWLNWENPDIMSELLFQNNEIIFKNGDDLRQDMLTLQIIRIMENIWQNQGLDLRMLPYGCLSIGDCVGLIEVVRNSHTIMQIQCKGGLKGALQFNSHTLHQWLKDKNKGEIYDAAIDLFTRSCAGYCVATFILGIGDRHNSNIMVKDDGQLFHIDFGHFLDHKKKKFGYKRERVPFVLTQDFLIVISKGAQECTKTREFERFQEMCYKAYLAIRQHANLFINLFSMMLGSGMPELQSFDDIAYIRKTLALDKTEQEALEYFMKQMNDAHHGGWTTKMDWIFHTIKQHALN
Sequence of Phosphatidylinositol 4,5-bisphosphate 3-kinase catalytic subunit delta isoform (Homo sapiens, UniProt O00329, N836D) (O00329 whole entry N836D, canonical isoform): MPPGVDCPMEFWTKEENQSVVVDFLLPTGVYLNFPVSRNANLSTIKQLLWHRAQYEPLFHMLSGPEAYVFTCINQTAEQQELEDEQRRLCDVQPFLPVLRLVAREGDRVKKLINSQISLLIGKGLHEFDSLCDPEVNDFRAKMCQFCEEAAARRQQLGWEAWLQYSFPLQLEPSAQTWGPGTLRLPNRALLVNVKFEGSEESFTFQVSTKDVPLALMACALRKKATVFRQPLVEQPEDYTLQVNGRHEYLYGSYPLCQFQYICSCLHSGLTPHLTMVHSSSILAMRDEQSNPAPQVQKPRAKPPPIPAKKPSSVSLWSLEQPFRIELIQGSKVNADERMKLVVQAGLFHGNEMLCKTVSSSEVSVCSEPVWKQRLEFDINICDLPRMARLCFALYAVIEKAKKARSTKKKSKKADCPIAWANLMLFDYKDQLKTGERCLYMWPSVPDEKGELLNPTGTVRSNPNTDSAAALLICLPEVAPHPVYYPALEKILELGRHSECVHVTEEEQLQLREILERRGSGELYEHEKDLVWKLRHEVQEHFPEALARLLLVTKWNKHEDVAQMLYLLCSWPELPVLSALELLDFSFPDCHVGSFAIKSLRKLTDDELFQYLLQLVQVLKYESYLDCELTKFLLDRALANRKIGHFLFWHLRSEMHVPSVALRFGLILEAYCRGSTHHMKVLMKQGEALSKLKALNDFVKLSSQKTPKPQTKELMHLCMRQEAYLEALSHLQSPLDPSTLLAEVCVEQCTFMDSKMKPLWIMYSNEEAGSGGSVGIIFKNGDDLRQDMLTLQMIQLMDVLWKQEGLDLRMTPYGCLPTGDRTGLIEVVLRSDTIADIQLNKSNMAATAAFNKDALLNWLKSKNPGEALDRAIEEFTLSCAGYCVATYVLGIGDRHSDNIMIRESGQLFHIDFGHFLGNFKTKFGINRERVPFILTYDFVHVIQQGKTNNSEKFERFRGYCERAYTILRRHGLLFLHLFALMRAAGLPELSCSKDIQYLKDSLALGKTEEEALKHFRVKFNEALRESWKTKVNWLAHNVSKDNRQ
Sequence of Phosphatidylinositol 4,5-bisphosphate 3-kinase catalytic subunit gamma isoform (P48736 whole entry, canonical isoform): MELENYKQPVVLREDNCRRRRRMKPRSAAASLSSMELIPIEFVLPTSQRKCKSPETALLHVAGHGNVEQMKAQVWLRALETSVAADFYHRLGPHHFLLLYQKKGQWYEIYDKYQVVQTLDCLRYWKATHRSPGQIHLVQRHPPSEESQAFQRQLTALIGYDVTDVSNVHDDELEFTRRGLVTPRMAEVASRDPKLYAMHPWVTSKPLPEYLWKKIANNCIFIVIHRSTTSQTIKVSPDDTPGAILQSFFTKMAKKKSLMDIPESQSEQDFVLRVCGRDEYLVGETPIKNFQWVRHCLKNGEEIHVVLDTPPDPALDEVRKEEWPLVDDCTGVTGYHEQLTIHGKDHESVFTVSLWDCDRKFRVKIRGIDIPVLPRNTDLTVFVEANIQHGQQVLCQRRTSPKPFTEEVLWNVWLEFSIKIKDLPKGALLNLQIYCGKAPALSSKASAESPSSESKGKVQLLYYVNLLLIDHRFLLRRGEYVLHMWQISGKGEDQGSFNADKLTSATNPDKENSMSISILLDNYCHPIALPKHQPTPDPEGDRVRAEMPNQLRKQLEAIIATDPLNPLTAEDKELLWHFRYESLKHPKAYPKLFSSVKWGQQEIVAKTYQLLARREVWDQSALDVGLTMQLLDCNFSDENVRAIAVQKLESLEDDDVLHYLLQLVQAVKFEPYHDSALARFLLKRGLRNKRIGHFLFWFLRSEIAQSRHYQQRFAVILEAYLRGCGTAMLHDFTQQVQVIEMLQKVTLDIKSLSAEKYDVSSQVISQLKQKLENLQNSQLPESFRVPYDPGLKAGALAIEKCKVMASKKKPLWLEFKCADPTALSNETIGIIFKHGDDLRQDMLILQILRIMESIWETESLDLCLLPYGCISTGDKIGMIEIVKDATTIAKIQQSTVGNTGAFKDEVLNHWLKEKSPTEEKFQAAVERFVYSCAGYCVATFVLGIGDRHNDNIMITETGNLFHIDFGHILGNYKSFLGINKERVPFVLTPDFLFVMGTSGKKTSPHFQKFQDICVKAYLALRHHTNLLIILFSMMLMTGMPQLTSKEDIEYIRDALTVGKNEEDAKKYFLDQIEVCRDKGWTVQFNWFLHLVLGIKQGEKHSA

For `C[C@@H](NC(=O)C1CCN(c2nc(N3CCOCC3)nc(-n3c(C(F)F)nc4ccccc43)n2)CC1)C(N)=O`, in assay [1], the inhibition result was “Active”. For the same molecule, the IC50 in assay [2] amounted to 0.123 µM; in assay [3], 0.044 µM; in assay [4] it was 0.536 µM; in [5], 0.601 µM; in assay [7], 0.1 µM; in [9] it was 0.114 µM. The IC50 in [10] was found to be 1.9 µM. The Ratio IC50 stood at 43 in assay [6] and 5 in [8].
Consider `C[C@H](NC(=O)C1CCN(c2nc(N3CCOCC3)nc(-n3c(C(F)F)nc4ccccc43)n2)CC1)C(N)=O`, for which the IC50 in [3] came to 0.04 µM; in assay [4], 0.434 µM; in [5] it was 0.207 µM; in [9] it was 0.123 µM.
For `O=C(CN1CCN(c2nc(N3CCOCC3)nc(-n3c(C(F)F)nc4ccccc43)n2)CC1)[C@H]1CCCN1`, the IC50 in assay [3] amounted to 0.052 µM; in assay [4], 6.08 µM; in assay [5] it was 0.06 µM; in assay [9], 1.77 µM; in assay [10] it was 0.004 µM.
`O=C([C@H]1CCCN1)N1CCN(c2nc(N3CCOCC3)nc(-n3c(C(F)F)nc4ccccc43)n2)CC1`: in assay [1], the inhibition result is “Active”. In addition, the values for the IC50 in [4], in assay [9] and in assay [10] were 5.86 µM, 2.61 µM and 0.009 µM, respectively.
Turning to `CC(C)[C@H](NC(=O)C1CCN(c2nc(N3CCOCC3)nc(-n3c(C(F)F)nc4ccccc43)n2)CC1)C(N)=O`, the IC50 amounted to 0.144 µM in assay [3], 0.44 µM in assay [4], 0.602 µM in assay [5] and 0.191 µM in [9].
The corresponding values for `NC(=O)[C@H](Cc1ccccc1)NC(=O)C1CCN(c2nc(N3CCOCC3)nc(-n3c(C(F)F)nc4ccccc43)n2)CC1` are 0.044 µM, 0.708 µM, 0.513 µM and 0.19 µM.
The matching figures for `N[C@H]1CC[C@@H](C(=O)N2CCN(c3nc(N4CCOCC4)nc(-n4c(C(F)F)nc5ccccc54)n3)CC2)CC1`: 0.143 µM, over 10 µM, 3.36 µM and 3.9 µM.
The matching figures for `O=C(O)C1CCN(c2nc(N3CCOCC3)nc(-n3c(C(F)F)nc4ccccc43)n2)CC1`: 0.038 µM, 0.064 µM, 0.217 µM and 0.183 µM.
In the case of `NC(=O)CNC(=O)[C@H]1CCCN(c2nc(N3CCOCC3)nc(-n3c(C(F)F)nc4ccccc43)n2)C1`, the IC50 in assay [3] was 0.034 µM; in [4] it was 0.194 µM; in assay [5], 0.024 µM; in assay [9] it was 0.032 µM; in assay [10] it was 0.095 µM. In assay [6], the Ratio IC50 was found to be 3.
In the case of `O=C([C@@H]1CCCN1)N1CCN(c2nc(N3CCOCC3)nc(-n3c(C(F)F)nc4ccccc43)n2)CC1`, the inhibition result in assay [1] was “Active”.
For the molecule `O=C([C@@H]1CCCCN1)N1CCN(c2nc(N3CCOCC3)nc(-n3c(C(F)F)nc4ccccc43)n2)CC1`, the IC50 in [3] worked out at 0.069 µM; in assay [4], 5.53 µM; in [5], 0.059 µM; in [9], 2.86 µM; in assay [10] it was 0.024 µM.
For `NC(=O)[C@H](Cc1ccccc1)NC(=O)[C@@H]1CCCN(c2nc(N3CCOCC3)nc(-n3c(C(F)F)nc4ccccc43)n2)C1`, the IC50 in [3] was 0.263 µM; in assay [4], 1.38 µM; in assay [5] it was 1.72 µM; in assay [9] it was 0.908 µM.
The matching figures for `NC(=O)[C@H](Cc1ccccc1)NC(=O)[C@H]1CCCN(c2nc(N3CCOCC3)nc(-n3c(C(F)F)nc4ccccc43)n2)C1`: 0.057 µM, 1.98 µM, 0.342 µM and 0.358 µM.
In the case of `O=C(O)[C@@H]1CCCN(c2nc(N3CCOCC3)nc(-n3c(C(F)F)nc4ccccc43)n2)C1`, the IC50 in assay [3] came to 0.163 µM; in [4], 0.247 µM; in assay [5] it was 0.428 µM; in assay [9] it was 0.183 µM.
Take `O=C(O)[C@H]1CCCN(c2nc(N3CCOCC3)nc(-n3c(C(F)F)nc4ccccc43)n2)C1`: the 50% inhibitory concentration (IC50) in assay [3] turned out to be 0.042 µM; in assay [4], 0.231 µM; in [5], 0.215 µM; in assay [9], 0.04 µM.
For the molecule `NC(=O)CNC(=O)C1CCN(c2nc(N3CCOCC3)nc(-n3c(C(F)F)nc4ccccc43)n2)CC1`, the IC50 in [3] came to 0.066 µM; in assay [4], 0.496 µM; in assay [5], 0.329 µM; in assay [9], 0.098 µM; in assay [10], 0.171 µM. Further, in [6], the Ratio IC50 amounted to 2.6.
Take `NC(=O)CNC(=O)[C@@H]1CCCN(c2nc(N3CCOCC3)nc(-n3c(C(F)F)nc4ccccc43)n2)C1`: the half-inhibitory concentration (IC50) in assay [3] stood at 0.038 µM; in [4] it was 0.445 µM; in [5] it was 0.166 µM; in assay [9], 0.083 µM.
The corresponding values for `NC(=O)[C@H](CO)NC(=O)C1CCN(c2nc(N3CCOCC3)nc(-n3c(C(F)F)nc4ccccc43)n2)CC1` are 0.029 µM, 0.521 µM, 0.162 µM and 0.067 µM.
With `O=C(C[C@@H]1CCCN1)N1CCN(c2nc(N3CCOCC3)nc(-n3c(C(F)F)nc4ccccc43)n2)CC1`, the IC50 in assay [3] is 0.022 µM; in assay [4], 5.76 µM; in assay [5] it was 0.146 µM; in [9] it was 2.05 µM; in assay [10], 0.007 µM.
The matching figures for `O=C([C@H]1CCCCN1)N1CCN(c2nc(N3CCOCC3)nc(-n3c(C(F)F)nc4ccccc43)n2)CC1`: 0.05 µM, 3.59 µM, 0.775 µM, 2.37 µM and 0.036 µM.
